Here are results for 15 compounds from publication PMC6367750 (Future Medicinal Chemistry, 2018).

The structures appear in SMILES notation. Like-named read-outs stand apart in the source and are kept apart here. Where only a bound is given, the exact number is not on record here.

For assay [1], the system named is MV4–11. Conditions: cited from earlier work.
A further assay relates to Molm13. Conditions: cited from earlier work.
The target in assay [2] is T1, FLT3-ITD (Homo sapiens, UniProt P36888, ITD).
T1 sequence (P36888 564-993): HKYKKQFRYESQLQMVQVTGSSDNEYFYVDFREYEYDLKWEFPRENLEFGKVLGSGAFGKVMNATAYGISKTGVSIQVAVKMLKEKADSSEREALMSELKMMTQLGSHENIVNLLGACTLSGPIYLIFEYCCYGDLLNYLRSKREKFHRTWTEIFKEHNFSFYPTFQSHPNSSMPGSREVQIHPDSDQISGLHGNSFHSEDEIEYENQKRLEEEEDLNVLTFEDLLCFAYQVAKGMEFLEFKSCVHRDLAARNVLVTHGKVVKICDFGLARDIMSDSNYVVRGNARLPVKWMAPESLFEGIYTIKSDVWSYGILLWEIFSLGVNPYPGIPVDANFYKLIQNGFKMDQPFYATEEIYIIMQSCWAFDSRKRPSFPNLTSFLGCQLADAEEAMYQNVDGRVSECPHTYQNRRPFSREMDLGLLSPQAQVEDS
Description: FLT3-ITD kinase inhibition, ADP-Glo kinase assay. In kind it is biochemical. Conditions: read-out: %FLT3 inhibition FLT3-ITD.

The test system of assay [3] is MV4–11. Description: Antiproliferative activity, CellTiter-Blue. In kind it is cell-based. Conditions: for AML cell growth inhibition: SAR discussion of Table 1.
A further assay has as its system Molm14. Put plainly: Antiproliferative activity, CellTiter-Blue. It counts as cell-based.
In assay [4] the test system is Molm13-res (FLT3 (ITD, D835Y)). Put plainly: Antiproliferative activity, CellTiter-Blue. Conditions: 72 h. It counts as cell-based.
The target in assay [5] is T2, FLT3-ITD (Homo sapiens, UniProt P36888).
T2 sequence (P36888 564-993): T1 sequence (P36888 564-993)
Put plainly: FLT3-ITD kinase inhibition, ADP-Glo kinase assay. Conditions: SAR discussion of Table 1. In kind it is biochemical.

The target of the next assay is ABL1-phosphorylated (Homo sapiens, UniProt P00519). Conditions: read-out: Kd ABL1-phosphorylated; KdELECT; ref Zimmerman et al. [28]; cited from earlier work.
The target of another assay is ABL1-nonphosphorylated (Homo sapiens, UniProt P00519). Conditions: read-out: Kd ABL1-nonphosphorylated; KdELECT; ref Zimmerman et al. [28]; cited from earlier work.
The subject of another assay is FLT3 D835Y. Conditions: read-out: IC50 FLT3 D835Y; cited from earlier work.
The subject of assay [6] is K562, NOMO-1, HL60 and MOLT4. Put plainly: Antiproliferative activity, non-FLT3-driven leukemia cell lines. Conditions: 72 h, read-out: IC50 range over non-FLT3-driven leukemia cell lines. It counts as cell-based.
The next assay addresses T3, FLT3 (Homo sapiens, UniProt P36888).
T3 sequence (P36888 27-993): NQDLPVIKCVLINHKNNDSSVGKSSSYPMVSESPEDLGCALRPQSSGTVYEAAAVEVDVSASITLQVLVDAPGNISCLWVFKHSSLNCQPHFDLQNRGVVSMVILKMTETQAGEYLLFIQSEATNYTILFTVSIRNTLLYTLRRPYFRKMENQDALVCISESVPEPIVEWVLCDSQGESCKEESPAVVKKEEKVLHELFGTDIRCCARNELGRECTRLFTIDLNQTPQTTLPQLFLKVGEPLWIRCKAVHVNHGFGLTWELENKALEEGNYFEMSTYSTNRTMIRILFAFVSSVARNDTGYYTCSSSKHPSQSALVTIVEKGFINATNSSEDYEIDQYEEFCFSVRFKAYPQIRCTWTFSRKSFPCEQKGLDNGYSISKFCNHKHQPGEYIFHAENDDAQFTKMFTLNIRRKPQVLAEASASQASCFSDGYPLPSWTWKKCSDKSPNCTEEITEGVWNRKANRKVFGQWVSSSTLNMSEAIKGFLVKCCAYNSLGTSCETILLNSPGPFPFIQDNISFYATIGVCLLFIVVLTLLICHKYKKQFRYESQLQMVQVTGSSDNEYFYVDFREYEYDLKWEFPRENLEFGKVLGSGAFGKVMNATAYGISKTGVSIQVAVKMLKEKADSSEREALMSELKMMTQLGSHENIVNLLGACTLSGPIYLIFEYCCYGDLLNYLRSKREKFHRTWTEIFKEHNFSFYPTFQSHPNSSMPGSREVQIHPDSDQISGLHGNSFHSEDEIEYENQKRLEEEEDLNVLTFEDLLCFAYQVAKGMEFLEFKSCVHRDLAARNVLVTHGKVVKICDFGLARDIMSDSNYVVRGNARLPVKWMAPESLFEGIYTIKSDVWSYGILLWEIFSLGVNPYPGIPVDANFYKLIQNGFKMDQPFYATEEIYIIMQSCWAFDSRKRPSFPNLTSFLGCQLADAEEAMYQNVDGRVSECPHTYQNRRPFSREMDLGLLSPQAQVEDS
Put plainly: DiscoverX ScanEdge kinase profiling. Conditions: read-out: percent inhibition FLT3. In kind it is binding.

A further assay addresses JAK2 (Homo sapiens, UniProt O60674). Description: DiscoverX ScanEdge kinase profiling. In kind it is binding. Conditions: read-out: percent inhibition JAK2.
For a further assay, the target named is JAK3 (Homo sapiens, UniProt P52333). Description: DiscoverX ScanEdge kinase profiling. It counts as binding. Conditions: read-out: percent inhibition JAK3.
A further assay deals with MKNK2 (Homo sapiens, UniProt Q9HBH9). Put plainly: DiscoverX ScanEdge kinase profiling. In kind it is binding. Conditions: read-out: percent inhibition MKNK2.
A further assay deals with phospho-STAT5. Description: Western blot of phospho-STAT5 in MV4–11 cells. It counts as cell-based.
The test system of the next assay is TOPK. Put plainly: Western blot of TOPK protein in MV4–11 cells. It counts as cell-based.
In a further assay the test system is TOPK mRNA. Put plainly: Real-time PCR of TOPK mRNA in MV4–11 cells. Conditions: 24 h. In kind it is cell-based.
Assay [7] deals with MV4–11. Put plainly: Cell cycle analysis. Conditions: MV4–11, 24 h. In kind it is cell-based.
In the next assay the test system is c-Kit. Conditions: read-out: IC50 c-Kit; cited from earlier work.
[8] abbreviates: Homo sapiens, MV4-11, 72 h, read-out: IC50 MV4–11, 72 h.
The mark [9] stands for this setting: Homo sapiens, MOLM-14, 72 h, read-out: IC50 Molm14, 72 h.
[10] abbreviates: read-out: IC50 Molm13-res, 72 h.

ABL1-phosphorylated, sequence (P00519 whole entry): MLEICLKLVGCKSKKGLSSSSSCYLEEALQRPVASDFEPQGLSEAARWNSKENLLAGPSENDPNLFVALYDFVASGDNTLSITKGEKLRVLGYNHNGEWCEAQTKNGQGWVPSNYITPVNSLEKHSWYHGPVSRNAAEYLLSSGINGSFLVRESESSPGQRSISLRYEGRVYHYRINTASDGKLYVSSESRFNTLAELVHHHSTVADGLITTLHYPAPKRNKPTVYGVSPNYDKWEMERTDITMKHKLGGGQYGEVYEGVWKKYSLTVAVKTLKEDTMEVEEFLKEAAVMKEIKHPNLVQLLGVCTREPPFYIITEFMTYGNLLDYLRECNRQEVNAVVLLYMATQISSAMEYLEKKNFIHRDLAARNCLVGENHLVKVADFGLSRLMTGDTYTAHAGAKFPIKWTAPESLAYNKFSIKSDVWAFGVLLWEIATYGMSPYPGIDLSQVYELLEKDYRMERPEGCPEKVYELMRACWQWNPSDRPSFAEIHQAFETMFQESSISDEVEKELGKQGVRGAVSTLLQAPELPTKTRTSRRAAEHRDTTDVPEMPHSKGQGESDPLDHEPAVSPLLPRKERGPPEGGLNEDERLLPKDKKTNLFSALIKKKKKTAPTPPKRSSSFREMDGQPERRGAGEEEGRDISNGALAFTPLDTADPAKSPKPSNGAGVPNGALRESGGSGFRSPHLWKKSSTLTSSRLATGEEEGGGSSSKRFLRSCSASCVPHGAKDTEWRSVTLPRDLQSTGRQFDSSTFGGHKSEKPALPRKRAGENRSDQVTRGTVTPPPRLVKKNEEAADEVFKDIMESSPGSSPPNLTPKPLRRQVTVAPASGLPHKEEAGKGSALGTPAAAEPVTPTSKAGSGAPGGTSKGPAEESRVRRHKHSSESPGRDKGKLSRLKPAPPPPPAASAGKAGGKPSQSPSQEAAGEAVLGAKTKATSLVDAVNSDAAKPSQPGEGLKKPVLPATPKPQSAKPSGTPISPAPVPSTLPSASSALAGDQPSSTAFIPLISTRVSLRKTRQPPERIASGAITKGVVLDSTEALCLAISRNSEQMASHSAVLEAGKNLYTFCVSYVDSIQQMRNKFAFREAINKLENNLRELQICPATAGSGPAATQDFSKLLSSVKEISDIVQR
ABL1-nonphosphorylated, sequence (P00519 whole entry): as above
JAK2, sequence (O60674 840-1132 limits assumed): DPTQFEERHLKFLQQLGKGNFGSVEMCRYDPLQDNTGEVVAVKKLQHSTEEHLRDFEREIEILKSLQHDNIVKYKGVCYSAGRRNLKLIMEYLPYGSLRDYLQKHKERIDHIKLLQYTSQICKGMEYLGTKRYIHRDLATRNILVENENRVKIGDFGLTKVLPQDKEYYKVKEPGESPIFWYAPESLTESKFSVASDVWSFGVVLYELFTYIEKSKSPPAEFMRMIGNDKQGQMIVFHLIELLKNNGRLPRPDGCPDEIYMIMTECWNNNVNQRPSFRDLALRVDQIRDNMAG
MKNK2, sequence (Q9HBH9 whole entry): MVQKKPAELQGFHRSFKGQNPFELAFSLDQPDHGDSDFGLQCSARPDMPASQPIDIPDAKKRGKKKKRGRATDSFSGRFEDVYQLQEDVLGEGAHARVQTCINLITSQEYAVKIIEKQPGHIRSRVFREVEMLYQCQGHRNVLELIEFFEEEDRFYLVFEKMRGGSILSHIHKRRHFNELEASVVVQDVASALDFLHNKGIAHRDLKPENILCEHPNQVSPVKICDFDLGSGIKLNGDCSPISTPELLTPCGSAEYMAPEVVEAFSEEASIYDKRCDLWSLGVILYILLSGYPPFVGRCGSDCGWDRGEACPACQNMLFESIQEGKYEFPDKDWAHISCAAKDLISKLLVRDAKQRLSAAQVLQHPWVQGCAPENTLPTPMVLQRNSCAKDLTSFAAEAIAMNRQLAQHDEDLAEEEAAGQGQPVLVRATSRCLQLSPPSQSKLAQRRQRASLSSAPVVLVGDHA
JAK3, sequence (P52333 813-1124 limits assumed): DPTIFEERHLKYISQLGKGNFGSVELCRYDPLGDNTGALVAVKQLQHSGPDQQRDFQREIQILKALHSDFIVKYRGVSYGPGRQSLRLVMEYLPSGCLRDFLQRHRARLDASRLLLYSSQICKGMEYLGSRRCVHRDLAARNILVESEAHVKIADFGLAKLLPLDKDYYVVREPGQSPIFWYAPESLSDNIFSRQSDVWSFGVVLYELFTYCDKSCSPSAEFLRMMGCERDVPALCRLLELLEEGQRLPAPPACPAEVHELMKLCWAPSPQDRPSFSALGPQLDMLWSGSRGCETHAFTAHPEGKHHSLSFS

Turning to `Nc1ncc(-c2ccncc2)nc1Nc1ccc2[nH]ccc2c1` [AKN-028], the “effect on cell cycle” value in the assay on MV4–11 [1] was “induce arrest in the G0/1 phase”.

`C[C@H]1CC[C@H](n2c3cnccc3c3cnc(Nc4ccc5c(n4)CCN(C(=O)CO)C5)nc32)CC1` [AMG 925]: the “effect on cell cycle” value with Molm13 is “induce arrest in the G0/1 phase”.

For the compound `NC1CCc2c(c(-c3c[nH]nc3C(F)(F)F)nc3ccc4[nH]ncc4c23)C1` (stereo not drawn) [Compound 7], the inhibition at 0.1 µM on FLT3-ITD [2] was 71%. Moreover, the 50% inhibitory concentration (IC50) in the assay on MV4–11 [3] (setting [8]) came to 132 nM. Also, the “AML cell growth inhibition” value in the assay with MV4–11 [3] is listed as “less active”.

Take `Cc1n[nH]cc1-c1nc2ccc3[nH]ncc3c2c2c1CCCC2` [Compound 9]: on FLT3-ITD [2], the inhibition at 0.1 µM stood at 54%. The IC50 is 61.5 nM in the assay on MV4–11 [3] (setting [8]), 64.1 nM in the assay on Molm14 (setting [9]) and 86.7 nM in assay [4] (setting [10]). In the assay with MV4–11 [3], the “AML cell growth inhibition” value is recorded as “potent inhibitors of AML proliferation”.

On to `c1[nH]nnc1-c1nc2ccc3[nH]ncc3c2c2c1CCCC2` [Compound 12], for which the inhibition at 0.1 µM on FLT3-ITD [2] is 56%. The IC50 in the assay with MV4–11 [3] (setting [8]) amounted to 154 nM. The “AML cell growth inhibition” value in the assay on MV4–11 [3] is listed as “not as active as HSD1169”.

`FC(F)(F)c1cc(-c2nc3ccc4[nH]ncc4c3c3c2CCCC3)n[nH]1` [Compound 13]: the inhibition at 0.1 µM at FLT3-ITD [2] stood at 5%. The half-inhibitory concentration (IC50) in the assay on MV4–11 [3] (setting [8]) was > 5000 nM. The “AML cell growth inhibition” value with MV4–11 [3] was “inactive even at 1000 nM”.

Regarding `c1ccc(-c2n[nH]cc2-c2nc3ccc4[nH]ncc4c3c3c2CCCC3)cc1` [Compound 14], at FLT3-ITD [2], the inhibition at 0.1 µM was determined as 26%. For the same compound, the IC50 in the assay with MV4–11 [3] (setting [8]) was 1450 nM.

For `c1cncc(-c2n[nH]cc2-c2nc3ccc4[nH]ncc4c3c3c2CCCC3)c1` [Compound 15], the inhibition at 0.1 µM at FLT3-ITD [2] was 6%. In the assay on MV4–11 [3] (setting [8]), the IC50 was determined as 1300 nM. Also, the “AML cell growth inhibition” value in the assay on MV4–11 [3] was “inactive compounds”.

Consider `c1cc(-c2n[nH]cc2-c2nc3ccc4[nH]ncc4c3c3c2CCCC3)cs1` [Compound 17], for which, on FLT3-ITD [2], the inhibition at 0.1 µM amounted to 19%. Besides, in the assay with MV4–11 [3] (setting [8]), the IC50 stood at 772 nM. In addition, in the assay with MV4–11 [3], the “AML cell growth inhibition” value was “inactive compounds”.

As to `FC(F)(F)c1n[nH]cc1-c1nc2ccc3[nH]ccc3c2c2c1CCCC2` [Compound 19], the “FLT3 enzymatic inhibition” value at FLT3-ITD [5] is given as “did not inhibit FLT3 enzymatic activity”. Besides, the inhibition at 0.1 µM on FLT3-ITD [2] is 8%. Moreover, the 50% inhibitory concentration (IC50) in the assay on MV4–11 [3] (setting [8]) came to 898 nM. The “AML cell growth inhibition” value in the assay on MV4–11 [3] is recorded as “did not inhibit FLT3 enzymatic activity or AML cell growth”.

On to `OCCn1cc(-c2nc3ccc4[nH]ncc4c3c3c2CCCC3)cn1` [Compound 20], for which the inhibition at 0.1 µM on FLT3-ITD [2] worked out at 27%. In addition, the IC50 in the assay on MV4–11 [3] (setting [8]) amounted to 1390 nM. In addition, the “AML cell growth inhibition” value with MV4–11 [3] is “inactive compounds”.

For the compound `CC1(COc2ccc3c(c2)ncn3-c2ccc3cccc(N4CCC(N)CC4)c3n2)COC1` [Crenolanib, crenolanib], the results for the equilibrium dissociation constant (Kd) on ABL1-phosphorylated and at ABL1-nonphosphorylated were 430 nM and 140 nM, respectively. The IC50 in the assay with FLT3 D835Y is 6.9 nM.

As for `FC(F)(F)c1n[nH]cc1-c1nc2ccc3[nH]ncc3c2c2c1CCCC2` [HSD1169], on FLT3-ITD [2], the inhibition at 0.1 µM is 80%. Also, the half-maximal inhibitory concentration (IC50) is 5 nM with MV4–11 [3] (setting [8]); 5.4 nM with MV4–11 [3] (read-out: IC50 MV4–11, 72 h, listed as 4 (HSD1169)); 5 nM in the assay on Molm14 (setting [9]); 4.9 nM with Molm14 (read-out: IC50 Molm14, 72 h, listed as 4 (HSD1169)); 5 nM in assay [4] (setting [10]); 5.1 nM in assay [4] (read-out: IC50 Molm13-res, listed as 4 (HSD1169)). In assay [6], the IC50 lay in the range of 620 to 1860 nM. Further, the “AML cell growth inhibition” value in the assay with MV4–11 [3] is recorded as “potent inhibitors of AML proliferation”. Further, the inhibition at 0.5 µM at FLT3, at JAK2, on JAK3 and on MKNK2 was > 90% each time. Besides, the “phosphorylation of STAT5 (western blot, words)” value in the assay with phospho-STAT5 is “inhibited the phosphorylation of STAT5”. For the same compound, the “TOPK protein level (western blot, words)” value in the assay with TOPK is on record as “reduction of TOPK protein in a dose-dependent manner”. The “TOPK mRNA level” value with TOPK mRNA is reported as “downregulation of TOPK mRNA”. Further, the “effect on cell cycle” value in the assay on MV4–11 [7] was “dose-dependent increase in the percentage of cells in the G0/1 phase”.

As to `CO[C@@H]1[C@H](N(C)C(=O)c2ccccc2)C[C@H]2O[C@]1(C)n1c3ccccc3c3c4c(c5c6ccccc6n2c5c31)C(=O)NC4` [PKC412 (midostaurin), midostaurin], the “effect on cell cycle” value in the assay with MV4–11 [1] and in the assay with Molm13 was “did not affect cell cycle pattern” each time.

In the case of `CCc1nc(C(N)=O)c(Nc2ccc(N3CCC(N4CCN(C)CC4)CC3)c(OC)c2)nc1NC1CCOCC1` [gilteritinib], the IC50 in the assay on c-Kit is 230 nM.
